Positions of bridges follow the written chain, without caps; N, C: chain ends. No end group written: not given here.
Experiments:
[1] = tested on: stomach cancer cell lines NUGC3; assay: Mouse xenograft experiment (tumor formation); type: in vivo, Balb-c/nude mouse; conditions: intraperitoneally 10 mg/kg once a day
Protocol: A mouse xenograft experiment was performed to analyze a tumor formation inhibitory effect of cancer therapeutic peptide fragments. Specifically, 5×10^6 stomach cancer cell lines NUGC3 were transplanted by subcutaneous injection into a flank site of a 6-week-old female Balb-c/nude mouse, and after one week (average tumor size 100 mm^3), Vehicle (0.9% saline), OCP5 (SEQ ID NO: 12), OCP5-VGLL1S84-15C (SEQ ID NO: 29), or OCP5-VGLL1S84-7C (SEQ ID NO: 33) was each administered intraperitoneally at 10 mg/kg once a day. Tumor size was measured with a digital caliper at 2-day intervals from the start of drug administration, and the tumor size (tumor size (mm^3)=long axis x short axis2) was calculated. The experiment was terminated when the average tumor size of the OCP5-administered group was 1,000 mm3, and then the tumor was extracted, and the tumor weight was measured.

[2] = tested on: MMP9; assay: MMP9 Western blot of extracted xenograft tumor tissue; type: in vivo; conditions: extracted NUGC3 xenograft tumor, 10 mg/kg once a day
Protocol: After completion of the in vivo xenograft experiment in Example 6-1, changes in the protein expression level of MMP9 were measured in the extracted tumor tissue using immunohistochemical staining and Western blot methods. In addition, the amount of MMP9 protein in the tumor tissue was analyzed by Western blot experiment. The protein amount in the sample was quantified using a BCA assay method, and 20 μg of each sample was loaded, electrophoresed on SDS-PAGE, and then transferred to a nitrocellulose membrane. The membrane was blocked in a 5% skim milk solution for 1 hour, and then placed in MMP9 (1:1000, Abcam #ab76003) or ACTB (1:10,000, SantaCruz #sc-47778) antibody solution and reacted overnight at 4° C. The next day, the primary antibody was removed, the membrane was washed with a TBST buffer, and a HRP-conjugated anti-mouse or anti-rabbit secondary antibody was diluted at 1:10,000 in the 5% skim milk solution, and then reacted with the membrane at room temperature for 1 hour. The blot reacted with a SuperSignalTM West Pico Chemiluminescent substrate (ThermoFisher #34580) and analyzed on the ChemiDoc XRS+ System (Bio-Rad Laboratories, #1708265).

[3] = tested on: MMP9; assay: MMP9 immunohistochemical staining of extracted xenograft tumor tissue; type: in vivo; conditions: extracted NUGC3 xenograft tumor, 10 mg/kg once a day
Protocol: After completion of the in vivo xenograft experiment in Example 6-1, changes in the protein expression level of MMP9 were measured in the extracted tumor tissue using immunohistochemical staining and Western blot methods. The immunohistochemical staining was performed by the following method. The extracted tumor tissue was immobilized with 4% paraformaldehyde and embedded in paraffin, and then the tissue was sectioned at 4 μm thickness and attached to a glass slide. The tissue was hydrated with a xylene-ethanol reaction, and then reacted with an MMP9 antibody (1:100) at 4° C. overnight. The next day, the tissue sections were washed with PBS and reacted with a secondary antibody HRP-conjugated anti-rabbit antibody (1:100) at room temperature for 1 hour, and then the antibody was washed with PBS, and the reacted MMP9 was searched through the reaction by a DAB substrate kit (Vecotr Laboratories, #SK-4100). After DAB washing, nuclear staining was performed with a hematoxylin solution, and the tissue was emulsified through an ethanol-xylene reaction and then mounted. Tissue photographs were obtained using a Nikon TS2 microscope.

[4] = tested on: stomach cancer cell line NUGC2; assay: Cell growth inhibition (sulforhodamine B staining); type: cell-based; conditions: NUGC2, 10 μM
Protocol: (§1) Specifically, in order to confirm cell growth ability, a stomach cancer cell line NUGC3 and a breast cancer cell line SK-BR-3 were each subcultured in a 96-well plate, and the next day, peptide fragments Con, 7, and CC of Table 2 were treated with 100 μM each to the cell lines. After 72 hours, the cells were immobilized with a 10% trichloroacetic acid solution, and then stained the cell with a 0.4% sulforhodamine B solution for 1 hour, washed with acetic acid, and dried. Thereafter, the dried cells were dissolved in a 10 mM Tris solution and absorbance was measured at 510 nm using an ELISA plate reader.
(§2) It was investigated whether the cancer therapeutic peptide synthesized in this study could be used to treat various cancers other than stomach cancer. For this purpose, the cancer therapeutic peptides OCP and OCP5-VGLLIS84-7C were treated in stomach cancer cell lines […] and AGS, lung cancer cell lines H460 and A549, pancreatic cancer cell lines AsPC-1 and MIAPaca-1, and breast cancer cell lines MCF7 and MDA-MB-231 at concentrations of 10 μM. Thereafter, as a result of analysis in the same manner as in Example 1, the growth inhibitory efficacy of OCP5-VGLLIS84-7C cancer cells was confirmed compared to the control OCP5 (FIG. 14).

[5] = tested on: pancreatic cancer cell line AsPC-1; assay: Cell growth inhibition (sulforhodamine B staining); type: cell-based; conditions: AsPC-1, 10 μM
Protocol: as §1, §2

[6] = tested on: breast cancer cell line MDA-MB-231; assay: Cell growth inhibition (sulforhodamine B staining); type: cell-based; conditions: MDA-MB-231, 10 μM
Protocol: as §1, §2

[7] = tested on: lung cancer cell line A549; assay: Cell growth inhibition (sulforhodamine B staining); type: cell-based; conditions: A549, 10 μM
Protocol: as §1, §2

[8] = tested on: breast cancer cell line MCF7; assay: Cell growth inhibition (sulforhodamine B staining); type: cell-based; conditions: MCF7, 10 μM
Protocol: as §1, §2

[9] = tested on: pancreatic cancer cell line MIAPaca-1; assay: Cell growth inhibition (sulforhodamine B staining); type: cell-based; conditions: MIAPaca-1, 10 μM
Protocol: as §1, §2

[10] = tested on: lung cancer cell line H460; assay: Cell growth inhibition (sulforhodamine B staining); type: cell-based; conditions: H460, 10 μM
Protocol: as §1, §2

[11] = tested on: stomach cancer cell line AGS; assay: Cell growth inhibition (sulforhodamine B staining); type: cell-based; conditions: 10 μM
Protocol: as §1
(§3) Specifically, in order to confirm the cancer cell inhibition enhancing effect by enhancing the cell permeability of OCP5 among the novel synthesized CPPs, a cancer therapeutic peptide fragment represented by SEQ ID NO: 6 including the existing TAT and a cancer therapeutic peptide fragment represented by SEQ ID NO: 31 including the novel synthesized OCP5 were used. The stomach cancer cell lines NUGC3 and AGS, the breast cancer cell line SK-BR-3, and the pancreatic cancer cell line Capan-1 were treated with 25 μM SEQ ID NO: 6 and 100 μM SEQ ID NO: 31 for 72 hours, respectively, and the cancer cell growth inhibitory effects were compared in the same manner as in Example 1. […]

[12] = tested on: stomach cancer cell line NUGC3; assay: Cell growth inhibition (sulforhodamine B staining); type: cell-based
Protocol: as §1
In order to compare the cancer cell growth inhibitory effects of cancer therapeutic peptides according to cell-penetrating peptides, the stomach cancer cell line NUGC3 was treated with 10 μM each of cancer therapeutic peptide fragments in Table 4, and the cancer cell growth inhibitory effects were screened in the same manner as in Example 1.
Specifically, in order to confirm the cancer cell inhibition enhancing effect by enhancing the cell permeability of OCP5 among the novel synthesized CPPs, a cancer therapeutic peptide fragment represented by SEQ ID NO: 6 including the existing TAT and a cancer therapeutic peptide fragment represented by SEQ ID NO: 31 including the novel synthesized OCP5 were used. The stomach cancer cell lines NUGC3 and AGS, the breast cancer cell line SK-BR-3, and the pancreatic cancer cell line Capan-1 were treated with 25 μM SEQ ID NO: 6 and 100 μM SEQ ID NO: 31 for 72 hours, respectively, and the cancer cell growth inhibitory effects were compared in the same manner as in Example 1. […] Through this, it was confirmed that the novel CPP may be applied more effectively than the existing TAT to inhibit the cancer cell growth by the anticancer peptides.
To analyze the cancer cell growth inhibitory effect according to a length of the anticancer peptide fragment, OCP9-VGLLIS84-7 (SEQ ID NO: 43), OCP9-VGLLIS84-9CC (SEQ ID NO: 46), and OCP9-VGLLIS84-15 (SEQ ID NO: 49) were treated for each concentration to analyze the growth inhibitory effects of stomach cancer cell lines NUGC3 and NCI-N87. When stomach cancer cells were treated with cancer therapeutic peptides, the cancer cell growth inhibitory efficacy was shown in a concentration-dependent manner. In addition, it was confirmed that the growth inhibitory effect on the stomach cancer cell lines increased as the length of the anticancer peptide fragment increased (FIG. 7).
Specifically, the cancer cell growth inhibitory effect according to partial or entire cyclization of the anticancer peptide fragment was analyzed. The stomach cancer cell line NUGC3 was treated with a CPP fragment OCP9 (SEQ ID NO: 16), a partially cyclized sequence […] (SEQ ID NO: 33), or a sequence OCP9-VGLLIS84-7CC (SEQ ID NO: 40) including an entirely cyclized anticancer peptide at different concentrations of 1, 2.5, 5, 10, and 20 μM, respectively, and the cancer cell growth inhibitory effects were compared in the same manner as in Example 1.

[13] = tested on: stomach cancer cell lines NUGC3; assay: Wound healing assay (cancer cell migration); type: cell-based; conditions: 10 μM
Protocol: In order to analyze the possibility of metastasis inhibitory efficacy of stomach cancer cells by anticancer therapeutic peptides, a wound healing assay was performed to evaluate a migration inhibitory effect of stomach cancer cells. Specifically, 5×10^4 stomach cancer cell lines NUGC3 were subcultured in a 24-well plate, and then the next day, scratches were made at the center of the cells, and 10 μM OCP5-VGLL1S84-7C (SEQ ID NO: 33) was mixed into the cell culture medium and administered. Real-time cell images were acquired through Cytation5 (Biotek), and the degree of cancer cell migration was analyzed by calculating the average area (wound width, B) of the scratch area and the degree (% Confluence, C) to which cells were filled.

[14] = tested on: breast cancer cell line SK-BR-3; assay: Cell growth inhibition (sulforhodamine B staining); type: cell-based; conditions: SK-BR-3, 100 μM, 72 hours; compared with linear anticancer peptide (SEQ ID NO: 5)
Protocol: as §1, §3

Substance | tumor formation inhibitory effect compared to the vehicle group [1] [%] | amount of MMP9 in tumor tissues (Western blot) [2] | amount of MMP9 protein in the tumor (immunohistochemical staining) [3] | growth inhibitory efficacy compared to the control OCP5 [4] | growth inhibitory efficacy compared to the control OCP5 [5] | growth inhibitory efficacy compared to the control OCP5 [6] | growth inhibitory efficacy compared to the control OCP5 [7] | growth inhibitory efficacy compared to the control OCP5 [8] | growth inhibitory efficacy compared to the control OCP5 [9] | growth inhibitory efficacy compared to the control OCP5 [10] | growth inhibitory efficacy compared to the control OCP5 [11] | cancer cell growth inhibitory effect ([12]; NUGC3, 10 μM screening of Table 4 peptides) | migration of cancer cells (wound width, % Confluence) [13] | cell growth inhibitory effect [14] | cell growth inhibitory effect ([12]; NUGC3, 100 μM, 72 hours, compared with linear anticancer peptide (SEQ ID NO: 5))
SIIFRIFLHLQK-CPNQWRYSSPWTKPQPC-RRR (SIIFRIFLHLQKCPNQWRYSSPWTKPQPCRRR; disulfide 13-29) [OCP5-VGLL1S84-15C] | 63 | reduced | significantly reduced | – | – | – | – | – | – | – | – | – | – | – | –
SIIFRIFLHLQK-CYSSPWTKC-RRR (SIIFRIFLHLQKCYSSPWTKCRRR; disulfide 13-21) [OCP5-VGLL1S84-7C] | 45 | reduced | significantly reduced | confirmed | confirmed | confirmed | confirmed | confirmed | confirmed | confirmed | confirmed | significant cancer cell growth inhibitory effect | inhibited | – | –
YGRKKRRQRRR-CYSSPWTKC (YGRKKRRQRRRCYSSPWTKC; disulfide 12-20) [SEQ ID NO: 6, TAT-cyclic anticancer peptide] | – | – | – | – | – | – | – | – | – | – | – | – | – | significantly superior | significantly superior

From patent US20240336659A1, “CELL-PENETRATING PEPTIDE, ANTI-CANCER PEPTIDE, AND PHARMACEUTICAL COMPOSITION FOR PREVENTING OR TREATING CANCER, COMPRISING SAME” (ONECUREGEN CO., LTD., priority 2021, published 2024)
